Results taken from ChEMBL document CHEMBL1201862, “PubChem BioAssay data set” (2004).
The source made the active and inactive calls.

Key:
[1] = target: Eukaryotic translation initiation factor 4H (Homo sapiens, UniProt Q15056); assay: human eIF4H binding inhibitors, primary screen, translation initiation inhibitor project, biochemical, uHTS, fluorescence polarization (AID 2012)
[2] = target: Polyadenylate-binding protein 1 (Homo sapiens, UniProt P11940); assay: PABP poly(A) RNA binding inhibitors, primary screen, biochemical, fluorescence polarization, uHTS (AID 2014)
Cytochrome P450 2C19 = Cytochrome P450 2C19 (Homo sapiens, UniProt P33261); assay: Cytochrome panel assay with activity outcomes. Panel member name: p450-cyp2c19 Compounds with AC50 equal or less than 10 uM are considered active; assay type: functional; settings: read-out: AC50
Cytochrome P450 2D6 = Cytochrome P450 2D6 (Homo sapiens, UniProt P10635);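 note: CYP2D6 member of a cytochrome P450 panel assay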
Cytochrome P450 2C9 = Cytochrome P450 2C9 (Homo sapiens, UniProt P11712)
Cytochrome P450 3A4 = Cytochrome P450 3A4 (Homo sapiens, UniProt P08684); settings: Potency;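 note: confirmatory qHTS run detecting inhibitors and substrates of CYP3A4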
[3] = A cytotoxicity screen of small molecule inhibitors of the PhoP region in Salmonella typhi identified in the primary screen. [Related pubchem assays: 1850, 1864, 1985 ]; assay type: functional
[4] = target: Glyceraldehyde-3-phosphate dehydrogenase (Homo sapiens, UniProt P04406)
[5] = target: Alkaline phosphatase, placental type (Homo sapiens, UniProt P05187); assay: PLAP enzyme inhibitors, confirmation, biochemical, luminescence (AID 1512); assay type: functional
[6] = target: T1, Alkaline phosphatase, tissue-nonspecific isozyme (Homo sapiens, UniProt P05186); assay: human TNAP enzyme inhibitors, SAR follow-up, biochemical, luminescent, dose response (AID 1056)
T1 sequence (P05186 whole entry): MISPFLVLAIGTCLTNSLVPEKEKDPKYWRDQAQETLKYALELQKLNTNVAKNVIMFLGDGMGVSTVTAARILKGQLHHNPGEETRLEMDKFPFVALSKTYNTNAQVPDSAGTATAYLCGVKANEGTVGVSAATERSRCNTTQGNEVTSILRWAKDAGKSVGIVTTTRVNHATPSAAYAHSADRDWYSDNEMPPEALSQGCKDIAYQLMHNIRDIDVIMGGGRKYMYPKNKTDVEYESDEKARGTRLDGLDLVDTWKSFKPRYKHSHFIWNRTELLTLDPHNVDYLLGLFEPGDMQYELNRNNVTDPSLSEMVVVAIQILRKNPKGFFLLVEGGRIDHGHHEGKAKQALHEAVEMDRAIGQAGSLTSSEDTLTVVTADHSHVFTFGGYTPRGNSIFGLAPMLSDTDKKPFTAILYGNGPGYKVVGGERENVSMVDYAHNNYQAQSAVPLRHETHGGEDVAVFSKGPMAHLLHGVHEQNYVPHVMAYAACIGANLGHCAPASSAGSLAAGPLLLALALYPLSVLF

[7] = cytotoxicity in HPDE-C7 cells, cell-based, fluorescence, HTS (AID 430); assay type: functional; settings: Homo sapiens
[8] = cytotoxicity in KRAS-transformed pancreatic duct cells, primary screen, cell-based, fluorescence, HTS (AID 431); assay type: functional; settings: Homo sapiens;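 note: cell line used: HPDE-C7K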
[9] = Luminescence Cell-Based Dose Retest to Confirm Inhibitors of Cancer Stem Cells. [Related pubchem assays (depositor defined):AID2717, AID2721]; assay type: functional; settings: Homo sapiens
Leucine aminopeptidase = target: T2, Leucine aminopeptidase (Plasmodium falciparum 3D7, UniProt Q8IL11); assay: P. falciparum M17LAP inhibitors, primary screen, biochemical, fluorogenic H-Leu-NHMec substrate, 1536-well (AID 1619); assay type: functional
T2 sequence (Q8IL11 whole entry): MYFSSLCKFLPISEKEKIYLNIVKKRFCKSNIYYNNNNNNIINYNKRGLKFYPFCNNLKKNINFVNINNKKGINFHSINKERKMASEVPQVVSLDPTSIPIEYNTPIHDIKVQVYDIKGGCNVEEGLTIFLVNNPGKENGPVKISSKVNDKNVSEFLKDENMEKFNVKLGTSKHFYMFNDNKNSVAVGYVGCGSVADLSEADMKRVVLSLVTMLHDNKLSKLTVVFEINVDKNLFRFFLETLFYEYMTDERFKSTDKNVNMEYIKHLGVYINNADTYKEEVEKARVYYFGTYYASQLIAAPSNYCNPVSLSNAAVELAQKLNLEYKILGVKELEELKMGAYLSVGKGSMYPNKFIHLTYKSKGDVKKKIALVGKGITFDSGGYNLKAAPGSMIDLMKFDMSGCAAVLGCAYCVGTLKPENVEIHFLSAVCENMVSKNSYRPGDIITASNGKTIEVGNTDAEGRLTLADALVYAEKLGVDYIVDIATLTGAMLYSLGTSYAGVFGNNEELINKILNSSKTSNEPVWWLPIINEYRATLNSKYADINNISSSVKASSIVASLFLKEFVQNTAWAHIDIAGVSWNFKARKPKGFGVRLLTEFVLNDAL

Aspartyl aminopeptidase = target: T3, Aspartyl aminopeptidase (Plasmodium falciparum 3D7, UniProt Q8I2J3); assay: Counterscreen for inhibitors of M1 and M17 aminopeptidases: QFRET-based biochemical high throughput dose response assay for inhibitors of the Plasmodium falciparum M18 Aspartyl Aminopeptidase (PFM18AAP). [Related PubChem assays: 1619 (Screening assay (M17LAP inhibitors).), 1445 (Screening assay (M1AAP inhibitors).)]
T3 sequence (Q8I2J3 whole entry): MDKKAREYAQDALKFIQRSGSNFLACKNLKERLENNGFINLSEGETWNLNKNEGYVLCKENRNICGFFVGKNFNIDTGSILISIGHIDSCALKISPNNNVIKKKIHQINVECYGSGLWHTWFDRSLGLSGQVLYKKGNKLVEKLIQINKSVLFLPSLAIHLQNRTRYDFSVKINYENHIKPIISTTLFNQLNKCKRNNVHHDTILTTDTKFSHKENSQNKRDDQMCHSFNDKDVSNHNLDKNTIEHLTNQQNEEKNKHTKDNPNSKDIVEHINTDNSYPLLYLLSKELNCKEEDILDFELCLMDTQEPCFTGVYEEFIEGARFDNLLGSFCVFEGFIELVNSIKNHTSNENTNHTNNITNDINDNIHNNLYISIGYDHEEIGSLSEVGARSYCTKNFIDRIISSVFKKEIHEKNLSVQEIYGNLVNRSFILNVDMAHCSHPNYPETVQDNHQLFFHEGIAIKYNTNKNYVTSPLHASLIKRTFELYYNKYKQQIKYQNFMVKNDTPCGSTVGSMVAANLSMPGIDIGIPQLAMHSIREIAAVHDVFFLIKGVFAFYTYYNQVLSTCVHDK

Procathepsin L = Procathepsin L (Homo sapiens, UniProt P07711); assay: cathepsin L inhibitors, dose response, counter-screen for M1/M17 aminopeptidase inhibitor project, biochemical, QFRET, 1536-well (AID 2214)
[10] = NIH-3T3 fibroblast cytotoxicity, dose response, cytotoxicity control, cell-based, fluorescence, Alamar Blue, secondary assay (AID 2327); assay type: functional;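 note: NIH-3T3 mouse fibroblasts cultured with fluconazole at 8 µg/mL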
[11] = C. albicans growth with fluconazole, confirmation, fluorescence, retest (AID 2467); assay type: functional, cell-based
cells = assay type: functional

Cytochrome P450 3A4, sequence (P08684 whole entry): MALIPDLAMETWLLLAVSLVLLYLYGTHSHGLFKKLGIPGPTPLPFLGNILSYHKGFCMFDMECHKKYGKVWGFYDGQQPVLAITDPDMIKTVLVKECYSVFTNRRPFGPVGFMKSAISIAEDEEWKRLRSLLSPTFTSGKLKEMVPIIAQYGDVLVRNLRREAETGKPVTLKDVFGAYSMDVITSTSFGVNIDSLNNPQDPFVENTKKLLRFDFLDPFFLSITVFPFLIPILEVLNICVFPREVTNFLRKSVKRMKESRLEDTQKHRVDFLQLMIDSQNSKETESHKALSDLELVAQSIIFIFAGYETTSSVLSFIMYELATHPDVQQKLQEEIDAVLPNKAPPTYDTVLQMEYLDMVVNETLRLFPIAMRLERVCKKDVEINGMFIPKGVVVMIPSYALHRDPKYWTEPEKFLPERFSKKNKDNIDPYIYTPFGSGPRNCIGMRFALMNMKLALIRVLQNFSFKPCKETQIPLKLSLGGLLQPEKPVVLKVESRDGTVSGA
Polyadenylate-binding protein 1, sequence (P11940 whole entry): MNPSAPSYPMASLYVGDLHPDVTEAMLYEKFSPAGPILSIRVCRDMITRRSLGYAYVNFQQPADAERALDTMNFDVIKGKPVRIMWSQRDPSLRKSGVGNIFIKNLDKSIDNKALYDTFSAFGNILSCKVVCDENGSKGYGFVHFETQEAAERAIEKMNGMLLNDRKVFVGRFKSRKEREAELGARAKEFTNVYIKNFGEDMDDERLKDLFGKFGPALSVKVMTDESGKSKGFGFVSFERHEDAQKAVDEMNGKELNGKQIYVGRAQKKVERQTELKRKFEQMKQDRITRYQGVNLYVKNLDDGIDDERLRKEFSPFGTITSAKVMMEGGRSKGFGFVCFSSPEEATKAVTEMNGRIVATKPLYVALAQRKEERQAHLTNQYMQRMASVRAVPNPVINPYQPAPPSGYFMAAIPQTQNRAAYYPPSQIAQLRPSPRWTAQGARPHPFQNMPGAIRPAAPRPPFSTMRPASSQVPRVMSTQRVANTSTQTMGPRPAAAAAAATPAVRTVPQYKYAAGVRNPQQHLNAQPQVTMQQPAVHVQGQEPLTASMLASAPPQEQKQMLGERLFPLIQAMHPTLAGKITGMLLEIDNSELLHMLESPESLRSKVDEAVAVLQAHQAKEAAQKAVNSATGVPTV
Procathepsin L, sequence (P07711 whole entry): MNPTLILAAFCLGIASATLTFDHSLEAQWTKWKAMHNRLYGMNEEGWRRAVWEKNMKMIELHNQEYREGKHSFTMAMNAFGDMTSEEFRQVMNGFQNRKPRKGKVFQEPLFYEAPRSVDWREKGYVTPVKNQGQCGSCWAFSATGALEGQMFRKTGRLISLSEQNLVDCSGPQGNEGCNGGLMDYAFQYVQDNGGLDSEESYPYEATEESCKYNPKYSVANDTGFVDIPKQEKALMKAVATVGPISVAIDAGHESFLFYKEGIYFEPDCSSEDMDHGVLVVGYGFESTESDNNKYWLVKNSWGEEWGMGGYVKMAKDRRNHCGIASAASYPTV
Alkaline phosphatase, placental type, sequence (P05187 whole entry): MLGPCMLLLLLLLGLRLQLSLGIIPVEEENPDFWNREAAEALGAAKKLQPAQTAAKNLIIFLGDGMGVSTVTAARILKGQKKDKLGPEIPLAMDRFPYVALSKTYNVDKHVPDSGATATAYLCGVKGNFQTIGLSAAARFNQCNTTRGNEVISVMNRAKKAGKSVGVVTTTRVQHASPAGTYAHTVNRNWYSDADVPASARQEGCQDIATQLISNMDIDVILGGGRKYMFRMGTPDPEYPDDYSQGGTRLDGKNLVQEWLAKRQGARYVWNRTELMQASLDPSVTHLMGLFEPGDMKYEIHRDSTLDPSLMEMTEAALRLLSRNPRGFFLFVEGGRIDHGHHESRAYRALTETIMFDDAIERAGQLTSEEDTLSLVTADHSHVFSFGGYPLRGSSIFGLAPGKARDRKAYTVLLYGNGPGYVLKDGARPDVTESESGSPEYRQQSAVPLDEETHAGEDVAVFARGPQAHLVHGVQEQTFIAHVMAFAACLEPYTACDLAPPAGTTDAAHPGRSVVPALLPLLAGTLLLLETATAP
Cytochrome P450 2D6, sequence (P10635 whole entry): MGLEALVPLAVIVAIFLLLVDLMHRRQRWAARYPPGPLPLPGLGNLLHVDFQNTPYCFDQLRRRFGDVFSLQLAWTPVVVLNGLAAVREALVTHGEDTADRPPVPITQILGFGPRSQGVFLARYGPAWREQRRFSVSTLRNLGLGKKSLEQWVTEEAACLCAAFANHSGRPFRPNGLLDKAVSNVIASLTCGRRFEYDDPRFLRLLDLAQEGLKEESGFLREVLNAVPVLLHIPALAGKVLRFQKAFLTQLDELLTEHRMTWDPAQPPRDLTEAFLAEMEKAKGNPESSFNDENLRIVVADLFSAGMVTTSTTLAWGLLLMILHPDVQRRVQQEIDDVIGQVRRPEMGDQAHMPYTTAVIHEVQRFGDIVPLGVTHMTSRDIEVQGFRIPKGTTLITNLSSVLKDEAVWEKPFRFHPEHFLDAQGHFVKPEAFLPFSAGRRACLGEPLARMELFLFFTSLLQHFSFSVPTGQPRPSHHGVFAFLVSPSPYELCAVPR
Cytochrome P450 2C19, sequence (P33261 whole entry): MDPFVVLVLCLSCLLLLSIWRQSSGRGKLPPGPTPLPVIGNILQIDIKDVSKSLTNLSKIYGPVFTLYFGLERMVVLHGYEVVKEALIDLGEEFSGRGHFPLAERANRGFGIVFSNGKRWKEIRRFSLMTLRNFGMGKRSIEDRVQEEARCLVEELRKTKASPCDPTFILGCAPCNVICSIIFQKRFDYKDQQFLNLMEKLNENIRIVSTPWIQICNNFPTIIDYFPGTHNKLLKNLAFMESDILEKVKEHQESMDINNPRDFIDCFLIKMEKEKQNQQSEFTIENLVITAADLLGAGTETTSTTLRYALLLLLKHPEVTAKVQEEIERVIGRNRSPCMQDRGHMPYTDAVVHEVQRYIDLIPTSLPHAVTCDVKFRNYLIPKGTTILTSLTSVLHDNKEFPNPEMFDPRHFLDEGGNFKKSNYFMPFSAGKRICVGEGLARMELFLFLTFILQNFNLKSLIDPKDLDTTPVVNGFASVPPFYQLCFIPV
Glyceraldehyde-3-phosphate dehydrogenase, sequence (P04406 whole entry): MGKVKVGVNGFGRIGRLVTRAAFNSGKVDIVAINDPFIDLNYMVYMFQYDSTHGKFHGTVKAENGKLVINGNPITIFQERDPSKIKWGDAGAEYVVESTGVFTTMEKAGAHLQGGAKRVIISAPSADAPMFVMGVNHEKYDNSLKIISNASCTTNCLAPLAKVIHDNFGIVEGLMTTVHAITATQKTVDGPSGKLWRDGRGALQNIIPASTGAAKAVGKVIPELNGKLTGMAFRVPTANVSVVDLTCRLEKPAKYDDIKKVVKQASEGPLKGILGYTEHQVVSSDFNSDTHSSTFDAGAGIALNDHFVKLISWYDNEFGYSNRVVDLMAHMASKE
Cytochrome P450 2C9, sequence (P11712 whole entry): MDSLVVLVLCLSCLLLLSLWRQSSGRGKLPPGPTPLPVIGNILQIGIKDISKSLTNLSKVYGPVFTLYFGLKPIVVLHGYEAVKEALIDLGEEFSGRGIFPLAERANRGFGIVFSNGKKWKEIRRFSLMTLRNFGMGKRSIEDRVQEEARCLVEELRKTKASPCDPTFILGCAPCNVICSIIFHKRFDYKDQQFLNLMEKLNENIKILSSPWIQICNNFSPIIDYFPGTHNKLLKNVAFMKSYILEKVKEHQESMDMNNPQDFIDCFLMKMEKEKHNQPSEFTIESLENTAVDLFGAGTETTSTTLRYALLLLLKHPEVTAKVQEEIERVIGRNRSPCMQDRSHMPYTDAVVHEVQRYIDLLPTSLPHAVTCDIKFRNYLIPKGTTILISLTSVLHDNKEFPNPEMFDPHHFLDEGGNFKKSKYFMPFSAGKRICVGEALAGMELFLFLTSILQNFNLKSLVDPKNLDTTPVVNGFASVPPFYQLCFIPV

In the case of `CC1=C(C(=O)OCc2ccccc2)C(c2ccccc2)NC(=O)N1CCCCCC(=O)O` (configuration not stated), the IC50 [1] is reported as 78.5 µM (active), the IC50 [2] is reported as 29.9 µM (active) and the AC50 (Cytochrome P450 2C19) is reported as 39.8 µM (inconclusive). The AC50 (Cytochrome P450 2D6) was 39.8 µM (inconclusive) and the AC50 (Cytochrome P450 2C9) was 25.1 µM (inconclusive).
With `Cc1cc(C)c(N)cc1C` the AC50 (Cytochrome P450 3A4) was 39.8 µM (inconclusive).
For `O=C(CN1C2=NCCN2c2ccccc21)c1ccc2c(c1)OCO2`, the EC50 [3] was > 50 µM (active).
For `COc1ccccc1-c1nnc(SCc2ccc(C(=O)O)cc2)[nH]1`, the IC50 [4] was > 100 µM (not active), the IC50 [5] was > 100 µM (inactive) and the IC50 [6] was 16.3 µM (active).
With `COc1cc(CN2CCN(c3cccc(Cl)c3)CC2)cc(OC)c1OC` the EC50 [7] was 6.14 µM (active), the EC50 [8] was 5.95 µM (active) and the AC50 [9] was 1.45 µM (active).
In the case of `O=C(O)CCCCCNC(=O)Nc1ccc2c(c1)OCCO2`, the IC50 (Leucine aminopeptidase) is reported as 5.51 µM (active), the IC50 (Aspartyl aminopeptidase) is reported as > 73.5 µM (not active) and the IC50 (Procathepsin L) is reported as > 59.6 µM (not active).
In the case of `CCCC(=O)N1CCN(c2ccc(NC(=S)NC(=O)c3cccc(C)c3)cc2)CC1`, the EC50 [3] is reported as > 50 µM (active).
With `CC(=O)OCC1OC(C#Cc2ccc(Br)cc2)C=CC1OC(C)=O` (configuration not stated) the AC50 (Cytochrome P450 3A4) was 3.16 µM (inconclusive).
In the case of `CCCCCCCC(=O)N/N=C/c1ccc([N+](=O)[O-])o1`, the EC50 [10] is reported as > 160 µM (inactive), the EC50 [3] is reported as > 50 µM (active) and the EC50 [11] is reported as 2.88 µM (active). For the same molecule, the IC50 (cells) was 2.63 µM (active).
